Our source for the IC50 values is patent US11591355B2 (Peloton Therapeutics, Inc., priority 2017, dated 2023).

One assay has as its target T1, Human CD73 (Homo sapiens, UniProt P21589).
T1 construct: purchased R&D Systems; host or cells: CHO cells
T1 sequence (P21589 27-549): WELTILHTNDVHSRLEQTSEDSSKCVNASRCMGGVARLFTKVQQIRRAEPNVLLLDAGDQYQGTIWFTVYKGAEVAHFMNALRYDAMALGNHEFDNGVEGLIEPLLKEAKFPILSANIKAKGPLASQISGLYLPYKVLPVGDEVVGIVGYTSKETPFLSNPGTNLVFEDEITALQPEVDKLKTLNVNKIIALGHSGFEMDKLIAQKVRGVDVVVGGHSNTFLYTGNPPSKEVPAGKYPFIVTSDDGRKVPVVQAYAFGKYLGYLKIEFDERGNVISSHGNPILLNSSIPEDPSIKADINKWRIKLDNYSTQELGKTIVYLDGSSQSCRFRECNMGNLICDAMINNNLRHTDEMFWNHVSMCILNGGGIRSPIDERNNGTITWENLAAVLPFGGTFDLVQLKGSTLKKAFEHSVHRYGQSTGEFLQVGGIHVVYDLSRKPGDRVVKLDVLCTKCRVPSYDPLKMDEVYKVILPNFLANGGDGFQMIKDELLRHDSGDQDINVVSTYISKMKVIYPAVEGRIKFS
Kind of assay: CD73 Enzyme Assay. It counts as biochemical. Conditions: read-out: CD73 Enzyme Assay IC50.

The target in assay [1] is T2, CD73 on U138 human neuroglioma cells (Homo sapiens, UniProt P21589).
T2 construct: U138 cells were obtained from ATCC and cultured in DMEM with 10% FBS; host or cells: U138 human neuroglioma cells
T2 sequence (P21589 27-549): T1 sequence (P21589 27-549)
Kind of assay: CD73 Cell-Based Assay. Summed up:
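Whole U138 cells washed free of phosphate were incubated with 200 μM AMP (mixture concentration before equal-volume addition) plus compound in HEPES-buffered saline, pH 7.4, for 2 h at 37 °C, 5% CO2. Adenosine-forming activity read as inorganic phosphate released into supernatant by malachite green.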

Where [2] appears, read: 0.25 nM hCD73, 25 μM AMP, kinetic read at 360 nm.
[3] abbreviates: U138 cells, AMP substrate, 2 hours at 37° C., inorganic phosphate by malachite green.

Read-outs that look alike come from different tables or passages of the source.

As usually defined, the IC50 is the midpoint of a concentration-inhibition curve. For the molecule `C[C@@H](Nc1nc(Cl)nc2c1ccn2[C@@H]1O[C@H](CS(=O)(=O)CP(=O)(O)O)[C@@H](O)[C@H]1O)c1ccc(F)cc1F` [Compound 178, (((((2S,3S,4R,5R)-5-(2-chloro-4-(((R)-1-(2,4-difluorophenyl)ethyl)amino)-7H-pyrrolo[2,3-d]pyrimidin-7-yl)-3,4-dihydroxytetrahydrofuran-2-yl)methyl)sulfonyl)methyl)phosphonic acid], the IC50 (at Human CD73 (setting [2]); in assay [1] (setting [3])) was below 10 nM throughout.

As to `C[C@@H](Nc1nc(Cl)nc2c1ccn2[C@@H]1O[C@H](CS(=O)(=O)CP(=O)(O)O)[C@@H](O)[C@H]1O)c1ccc(Cl)cc1` [Compound 179, [(2S,3S,4R,5R)-5-[2-chloro-4-[[(1R)-1-(4-chlorophenyl)ethyl]-amino]pyrrolo[2,3-d]-pyrimidin-7-yl]-3,4-dihydroxy-tetrahydro-furan-2-yl]methyl-sulfonylmethylphos-phonic acid], the IC50 (at Human CD73 (setting [2]); in assay [1] (setting [3])) was below 10 nM in each case.

Consider `C[C@@H](Nc1nc(Cl)nc2c1ccn2[C@@H]1O[C@H](CS(=O)(=O)CP(=O)(O)O)[C@@H](O)[C@H]1O)c1cccc(C#N)c1` [Compound 180, [(2S,3S,4R,5R)-5-[2-chloro-4-[[(1R)-1-(3-cyanophenyl)ethyl]-amino]pyrrolo[2,3-d]-pyrimidin-7-yl]-3,4-dihydroxy-tetrahydro-furan-2-yl]methyl-sulfonylmethylphos-phonic acid], for which the IC50 (on Human CD73 (setting [2]); in assay [1] (setting [3])) was below 10 nM in each case.

With `C[C@H](Nc1nc(Cl)nc2c1ccn2[C@@H]1O[C@H](CS(=O)(=O)CP(=O)(O)O)[C@@H](O)[C@H]1O)c1ccc(C#N)cc1` [Compound 181, [(2S,3S,4R,5R)-5-[2-chloro-4-[[(1S)-1-(4-cyanophenyl)ethyl]-amino]pyrrolo[2,3-d]-pyrimidin-7-yl]-3,4-dihydroxy-tetrahydro-furan-2-yl]methyl-sulfonylmethylphos-phonic acid], the IC50 (at Human CD73 (setting [2]); in assay [1] (setting [3])) was below 10 nM each time.

With `O=P(O)(O)CS(=O)(=O)C[C@H]1O[C@@H](n2ccc3c(NC4CCC(F)(F)CC4)nc(Cl)nc32)[C@H](O)[C@@H]1O` [Compound 182, [(2S,3S,4R,5R)-5-[2-chloro-4-[(4,4-difluoro-cyclohexyl)amino]-pyrrolo[2,3-d]-pyrimidin-7-yl]-3,4-dihydroxy-tetrahydro-furan-2-yl]methyl-sulfonylmethylphos-phonic acid], the half-inhibitory concentration (IC50) (at Human CD73 (setting [2]); in assay [1] (setting [3])) was below 10 nM in each case.

As for `C[C@H](Nc1nc(Cl)nc2c1ccn2[C@@H]1O[C@H](CS(=O)(=O)CP(=O)(O)O)[C@@H](O)[C@H]1O)c1ccc(F)cc1F` [Compound 183, [(2S,3S,4R,5R)-5-[2-chloro-4-[[(1S)-1-(2,4-difluorophenyl)ethyl]-amino]pyrrolo[2,3-d]-pyrimidin-7-yl]-3,4-dihydroxy-tetrahydro-furan-2-yl]methyl-sulfonylmethylphos-phonic acid], the IC50 (at Human CD73 (setting [2]); in assay [1] (setting [3])) was below 10 nM each time.

In the case of `CCOP(=O)(O)COC[C@H]1O[C@@H](n2ccc3c(NC4CCCC4)nc(Cl)nc32)[C@H](O)[C@@H]1O` [Compound 184, [(2R,3S,4R,5R)-5-[2-chloro-4-(cyclopentyl-amino)pyrrolo[2,3-d]-pyrimidin-7-yl]-3,4-dihydroxy-tetrahydro-furan-2-yl]methoxy-methylethoxy-phos-phinic acid], the IC50 at Human CD73 is above 1000 nM; in assay [1] it was 100 to 1000 nM.

Consider `CN(c1nc(Cl)nc2c1ncn2[C@@H]1O[C@H](COCP(=O)(O)O)[C@@H](O)[C@H]1O)C1CCCC1` [Compound 186, [(2R,3S,4R,5R)-5-[2-chloro-6-[cyclopentyl-(methyl)amino]purin-9-yl]-3,4-dihydroxy-tetrahydrofuran-2-yl]-methoxymethylphos-phonic acid], for which the results for the IC50 (on Human CD73 (setting [2]); in assay [1] (setting [3])) were below 10 nM and 10 to 100 nM, respectively.

Consider `CC(C)(C)C(=O)OCOP(=O)(COC[C@H]1O[C@@H](n2ccc3c(NC4CCCC4)nc(Cl)nc32)[C@H](O)[C@@H]1O)OCOC(=O)C(C)(C)C` [Compound 187, [[(2R,3S,4R,5R)-5-[2-chloro-4-(cyclopentyl-amino)pyrrolo[2,3-d]-pyrimidin-7-yl]-3,4-dihydroxy-tetrahydro-furan-2-yl]methoxy-methyl-(2,2-dimethyl-propanoyloxymethoxy)-phosphoryl]oxymethyl 2,2-dimethylpropanoate], for which the IC50 (on Human CD73 (setting [2]); in assay [1] (setting [3])) was above 1000 nM in each case.

For `CC(C)(C)C(=O)OCOP(=O)(O)COC[C@H]1O[C@@H](n2ccc3c(NC4CCCC4)nc(Cl)nc32)[C@H](O)[C@@H]1O` [Compound 188, [(2R,3S,4R,5R)-5-[2-chloro-4-(cyclopentyl-amino)pyrrolo[2,3-d]-pyrimidin-7-yl]-3,4-dihydroxy-tetrahydro-furan-2-yl]methoxy-methyl-(2,2-dimethyl-propanoyloxymethoxy)-phosphinic acid], the IC50 at Human CD73 (setting [2]) is below 10 nM; in assay [1] (setting [3]) it was 100 to 1000 nM.

For `C[C@@H](Nc1nc(C#N)nc2c1ccn2[C@@H]1O[C@H](COCP(=O)(O)O)[C@@H](O)[C@H]1O)c1ccc(F)cc1F` [Compound 189, [(2R,3S,4R,5R)-5-[2-cyano-4-[[(1R)-1-(2,4-difluorophenyl)ethyl]-amino]pyrrolo[2,3-d]-pyrimidin-7-yl]-3,4-dihydroxy-tetrahydro-furan-2-yl]methoxy-methylphosphonic acid], the IC50 (at Human CD73 (setting [2]); in assay [1] (setting [3])) was below 10 nM in each case.

Consider `O=P(O)(O)COC[C@H]1O[C@@H](n2ccc3c(N4CCCC4)nc(Cl)nc32)[C@H](O)[C@@H]1O` [Compound 190, [(2R,3S,4R,5R)-5-(2-chloro-4-pyrrolidin-1-yl-pyrrolo[2,3-d]-pyrimidin-7-yl)-3,4-dihydroxy-tetrahydro-furan-2-yl]methoxy-methylphosphonic acid], for which the IC50 (on Human CD73 (setting [2]); in assay [1] (setting [3])) was below 10 nM in each case.

`CN(c1nc(Cl)nc2c1ccn2[C@@H]1O[C@H](COCP(=O)(O)O)[C@@H](O)[C@H]1O)C1CCCC1` [Compound 192, [(2R,3S,4R,5R)-5-[2-chloro-4-[cyclopentyl-(methyl)amino]pyrrolo-[2,3-d]pyrimidin-7-yl]-3,4-dihydroxy-tetra-hydrofuran-2-yl]-methoxymethylphos-phonic acid]: the IC50 (at Human CD73 (setting [2]); in assay [1] (setting [3])) was below 10 nM in each case.

Consider `CC(C)OC(=O)OCOP(=O)(O)COC[C@H]1O[C@@H](n2ccc3c(NC4CCCC4)nc(Cl)nc32)[C@H](O)[C@@H]1O` [Compound 193, [(2R,3S,4R,5R)-5-[2-chloro-4-(cyclopentyl-amino)pyrrolo[2,3-d]-pyrimidin-7-yl]-3,4-dihydroxy-tetrahydro-furan-2-yl]methoxy-methyl-(isopropoxy-carbonyloxymethoxy)-phosphinic acid], for which the 50% inhibitory concentration (IC50) (on Human CD73 (setting [2]); in assay [1] (setting [3])) was 10 to 100 nM in each case.

In the case of `CC(C)C(=O)OCOP(=O)(O)COC[C@H]1O[C@@H](n2ccc3c(NC4CCCC4)nc(Cl)nc32)[C@H](O)[C@@H]1O` [Compound 194, [(2R,3S,4R,5R)-5-[2-chloro-4-(cyclopentyl-amino)pyrrolo[2,3-d]-pyrimidin-7-yl]-3,4-dihydroxy-tetrahydro-furan-2-yl]methoxy-methyl-(2-methyl-propanoyloxymeth-oxy)phosphinic acid], the IC50 (on Human CD73 (setting [2]); in assay [1] (setting [3])) was below 10 nM throughout.
